What was measured:
[1] = system: Erysiphe graminis f sp. tritici; experiment: Test G: wheat powdery mildew, preventive spray on wheat seedlings; conditions: 100 = 100% disease control; for Test G rating (% disease control): 10 ppm, wheat powdery mildew, 0 = no control
Source text: General protocol for preparing test solutions for Tests A-G: the test compounds were first dissolved in acetone in an amount equal to 3% of the final volume and then suspended at the desired concentration (in ppm) in acetone and purified water (50/50 mix by volume) containing 250 ppm of the surfactant PEG400 (polyhydric alcohol esters). The resulting test suspensions were then used in Tests A-G. Compounds were sprayed at a concentration of 50 ppm (*) or 10 ppm to the point of run-off on the test plants, the equivalent of a rate of 200 g/ha or 40 g/ha, respectively.
The test solution was sprayed to the point of run-off on wheat seedlings. The following day the seedlings were inoculated with a spore dust of Erysiphe graminis f sp. tritici, (the causal agent of wheat powdery mildew) and incubated in a growth chamber at 20° C. for 8 days, after which time visual disease ratings were made.
Compounds with an asterisks (*) were applied at a concentration of 50 ppm, otherwise test solutions were applied at 10 ppm.

[2] = system: Puccinia recondita f sp. tritici; experiment: Test F: wheat leaf rust, preventive spray on wheat seedlings; conditions: 100 = 100% disease control; for Test F rating (% disease control): 10 ppm, wheat leaf rust, 0 = no control
Botrytis cinerea = experiment: Test B: gray mold, preventive spray on tomato seedlings; conditions: 100 = 100% disease control; for Test B rating (% disease control): 10 ppm, gray mold on tomato, 0 = no control
Zymoseptoria tritici = experiment: Test E: wheat leaf blotch, preventive spray on wheat seedlings; conditions: 100 = 100% disease control; for Test E rating (% disease control): 10 ppm, wheat leaf blotch, 0 = no control
Stagonospora nodorum = experiment: Test D: wheat glume blotch, preventive spray on wheat seedlings; conditions: 100 = 100% disease control; for Test D rating (% disease control): 10 ppm, wheat glume blotch, 0 = no control
[3] = 10 ppm test solution, 0 = no control relative to controls

| Compound | Test G rating (% disease control) [1] | Test F rating (% disease control) [2] | Test B rating (% disease control) (Botrytis cinerea) | Test E rating (% disease control) (Zymoseptoria tritici) | Test D rating (% disease control) (Stagonospora nodorum) | Test G disease control rating [1, 3] | Test F disease control rating [2, 3] | Test B disease control rating (Botrytis cinerea; [3]) | Test E disease control rating (Zymoseptoria tritici; [3]) | Test D disease control rating (Stagonospora nodorum; [3]) |
| --- | --- | --- | --- | --- | --- | --- | --- | --- | --- | --- |
| CC(C)(C)CC1CC(C(O)(Cn2cncn2)C(C)(C)C)=NO1 (single isomer, unassigned) [Compound 77] | 13% | 0% | 0% | 0% | 0% |  |  |  |  |  |
| OC(Cn1cncn1)(C1=NOC(c2ccc(Cl)cc2)C1)c1cccc(Oc2ccccc2)c1 (single isomer, unassigned) [Compound 109] | 93% | 100% | 0% | 66% | 59% |  |  |  |  |  |
| C[S+]([O-])c1ccc(C2CC(C(O)(Cn3cncn3)c3ccc(Cl)cc3)=NO2)cc1 (single isomer, unassigned) [Compound 111] | 98% | 100% | 0% | 9% | 0% |  |  |  |  |  |
| OC(Cn1cncn1)(C1=NOC(c2ccc(Cl)cc2)C1)c1ccccc1F (single isomer, unassigned) [Compound 134] | 98% | 99% | 0% | 31% | 100% |  |  |  |  |  |
| CC(C)(C)C(O)(Cn1cncn1)C1=NOC(COc2ccc3c(c2)OCO3)C1 (single isomer, unassigned) [Compound 46] | 73% | 85% | 19% | 0% | 76% |  |  |  |  |  |
| CC(C)(C)C(O)(Cn1cncn1)C1=NOC(Cc2ccc(Br)cc2)C1 (single isomer, unassigned) [Compound 53] | 99% | 100% | 70% | 20% | 99% |  |  |  |  |  |
| CC(C)(C)C(O)(Cn1cncn1)C1=NOC(COc2ccc(OC(F)(F)F)cc2)C1 (single isomer, unassigned) [Compound 25] | 100% | 99% | 0% | 0% | 59% |  |  |  |  |  |
| OC(Cn1cncn1)(C1=NOC(c2cccc(Oc3ccccc3)c2)C1)c1ccc(Cl)cc1 (single isomer, unassigned) [Compound 176] | 100% | 100% | 0% | 2% | 82% |  |  |  |  |  |
| CC(C)(C)C(O)(Cn1cncn1)C1=NOC(Cc2ccc(Cl)c(Cl)c2)C1 (single isomer, unassigned) [Compound 22] | 99% | 100% | 0% | 29% | 96% |  |  |  |  |  |
| OC(Cn1cncn1)(C1=NOC(Cc2ccc(Cl)cc2)C1)c1ccc(Cl)cc1 (single isomer, unassigned) [Compound 201] | 96% | 100% | 0% | 1% | 50% |  |  |  |  |  |
| OC(Cn1cncn1)(C1=NOC(COc2ccc(Cl)cn2)C1)c1ccc(Cl)cc1 (single isomer, unassigned) [Compound 164] | 100% | 100% | 0% | 96% | 95% |  |  |  |  |  |
| CC(C)(C)CC1CC(C(O)(Cn2cncn2)c2ccc(Cl)cc2)=NO1 (single isomer, unassigned) [Compound 76] | 89% | 0% | 0% | 0% | 0% |  |  |  |  |  |
| CCC(C)(C)C(O)(Cn1cncn1)C1=NOC(Cc2ccc(C(F)(F)F)cc2)C1 (single isomer, unassigned) [Compound 19] | 100% | 100% | 0% | 10% | 89% |  |  |  |  |  |
| CC(C)(C)C(O)(Cn1cncn1)C1=NOC(COc2ccc3c(c2)OCO3)C1 (single isomer, unassigned) [Compound 45] | 87% | 67% | 70% | 0% | 99% |  |  |  |  |  |
| CC(C)(C)C(O)(Cn1cncn1)C1=NOC(COc2ccc(Cl)cc2)C1 (stereo not drawn) [Compound 174, α-[5-[(4-chlorophenoxy)methyl]-4,5-dihydro-3-isoxazolyl]-α-(1,1-dimethylethyl)-1H-1,2,4-triazole-1-ethanol] | 100% | 100% | 58% | 12% | 100% |  |  |  |  |  |
| CC(C)(C)C(O)(Cn1cncn1)C1=NOC(COc2ccc(-n3cccn3)cc2)C1 (single isomer, unassigned) [Compound 28] | 99% | 0% | 24% | 0% | 39% |  |  |  |  |  |
| OC(Cn1cncn1)(C1=NOC2c3ccccc3CCC12)c1ccc(Cl)cc1 (centres unmarked) [Compound 222] |  |  |  |  |  | 99% | 100% | 9% | 23% | 50% |
| CC(C)(C)CC1CC(C(O)(Cn2cncn2)c2ccc(Cl)cc2)=NO1 (single isomer, unassigned) [Compound 75] | 97% | 90% | 0% | 0% | 58% |  |  |  |  |  |
| CCC(C)(C)C(O)(Cn1cncn1)C1=NOC(COc2ccc(Cl)cc2)C1 (single isomer, unassigned) [Compound 186] | 100% | 100% | 99% | 66% | 100% |  |  |  |  |  |
| CC(C)(C)C(O)(Cn1cncn1)C1=NOC(Cc2ccccc2)C1 (single isomer, unassigned) [Compound 86] | 98% | 74% | 72% | 1% | 99% |  |  |  |  |  |
| OC(Cn1cncn1)(C1=NOC(c2ccc(Oc3ccccc3)cc2)C1)c1ccc(Cl)cc1 (single isomer, unassigned) [Compound 143] | 76% | 67% | 0% | 1% | 0% |  |  |  |  |  |
| CC(C)(C)C(O)(Cn1cncn1)C1=NOC(COc2ccc(Cl)cn2)C1 (single isomer, unassigned) [Compound 95] | 100% | 100% | 100% | 0% | 100% |  |  |  |  |  |
